Drawing on PubChem BioAssay AID588656 (The Scripps Research Institute Molecular Screening Center, 2011), this text covers inhibition and fold change for three compounds.

For orientation: inhibition means the drop in the measured response relative to a control, in per cent.

Test [1] deals with Mitogen-activated protein kinase 1 (Homo sapiens) (UniProt P28482). Put plainly: altered MAPK1 (ERK1/2) protein abundance – HT29 cells, chemiluminescent western blot, powder samples, counter-screen for KLF5 inhibitor project, late-stage follow-up (AID 588656). Conditions: HT29 cells, ERK1/2 western blot, 24 h; at 10 µM; stronger effect = higher value. For orientation: In western blotting, separated proteins are transferred to a membrane and probed.

The subject of test [2] is HT29 cells, ERK1/2 western blot, 24 h. The test is described as above. To be noted: measured here: ERK1/2 protein fold change vs DMSO; at 10 µM.

Chain of Mitogen-activated protein kinase 1 (Homo sapiens) (P28482 whole entry, looked up): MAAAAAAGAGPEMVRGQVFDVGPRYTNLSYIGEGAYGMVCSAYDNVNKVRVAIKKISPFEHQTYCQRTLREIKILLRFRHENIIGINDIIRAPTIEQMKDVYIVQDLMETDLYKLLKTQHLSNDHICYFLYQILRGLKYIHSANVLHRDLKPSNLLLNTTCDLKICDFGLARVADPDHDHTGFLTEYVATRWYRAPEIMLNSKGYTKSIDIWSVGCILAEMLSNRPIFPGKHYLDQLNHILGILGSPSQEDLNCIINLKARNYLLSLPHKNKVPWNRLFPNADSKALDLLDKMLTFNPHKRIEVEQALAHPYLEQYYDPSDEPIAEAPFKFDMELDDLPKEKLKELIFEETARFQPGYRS

Turning to `CN(C(=O)CNC(=O)/C=C/c1cccc(Cl)c1)C1CCS(=O)(=O)CC1`, in test [1], the inhibition is -96.5%. In test [2], the fold change worked out at 1.97.
On the same counts, the results for `CN(C(=O)CNC(=O)/C=C/c1cccc(Cl)c1)C1CCS(=O)(=O)C1` (stereo unspecified) are -96.6% and 1.97.
In the case of `CN(C(=O)COC(=O)/C=C/c1cccc([N+](=O)[O-])c1)C1CCS(=O)(=O)C1` (stereo unspecified), the inhibition in test [1] was -46.4%. The compound further showed a fold change in test [2] of 1.46.
